Laboratory results: US7456165B2, “HCV NS5B inhibitors” (Bristol-Myers Squibb Company, priority 2006, dated 2008)

How the values were obtained:
HCV NS5B = molecular target: T1, HCV NS5B (Hepatitis C virus genotype 1b, UniProt Q9WMX2); test: HCV NS5B RdRp enzyme assay (preincubation protocol); format: biochemical; conditions: HCV NS5B RdRp genotype 1b
T1 construct: The protein was expressed with an 18 amino acid C-terminal truncation to enhance the solubility; made in house; host or cells: E. coli BL21(DE3)
Protocol: HCV NS5B RdRp cloning, expression, and purification. The cDNA encoding the NS5B protein of HCV, genotype 1b, was cloned into the pET21a expression vector. The protein was expressed with an 18 amino acid C-terminal truncation to enhance the solubility. The E. coli competent cell line BL21(DE3) was used for expression of the protein. Cultures were grown at 37° C. for ˜4 hours until the cultures reached an optical density of 2.0 at 600 nm. The cultures were cooled to 20° C. and induced with 1 mM IPTG. Fresh ampicillin was added to a final concentration of 50 μg/ml and the cells were grown overnight at 20° C.
Cell pellets (3 L) were lysed for purification to yield 15-24 mgs of purified NS5B. The lysis buffer consisted of 20 mM Tris-HCl, pH 7.4, 500 mM NaCl, 0.5% triton X-100, 1 mM DTT, 1 mM EDTA, 20% glycerol, 0.5 mg/ml lysozyme, 10 mM MgCl2, 15 ug/ml deoxyribonuclease I, and Complete TM protease inhibitor tablets (Roche). After addition of the lysis buffer, frozen cell pellets were resuspended using a tissue homogenizer. To reduce the viscosity of the sample, aliquots of the lysate were sonicated on ice using a microtip attached to a Branson sonicator. The sonicated lysate was centrifuged at 100,000×g for 1 hr at 4° C. and filtered through a 0.2 μm filter unit (Corning).
The protein was purified using three sequential chromatography steps: Heparin sepharose CL-6B, polyU sepharose 4B, and Hitrap SP sepharose (Pharmacia). The chromatography buffers were identical to the lysis buffer but contained no lysozyme, deoxyribonuclease I, MgCl2 or protease inhibitor and the NaCl concentration of the buffer was adjusted according to the requirements for charging the protein onto the column. Each column was eluted with a NaCl gradient which varied in length from 5-50 column volumes depending on the column type. After the final chromatography step, the resulting purity of the enzyme is >90% based on SDS-PAGE analysis. The enzyme was aliquoted and stored at −80° C.
Standard HCV NS5B RdRp enzyme assay. HCV RdRp genotype 1b assays were run in a final volume of 60 μl in 96 well plates (Costar 3912 H. The assay buffer is composed of 20 mM Hepes, pH 7.5, 2.5 mM KCl, 2.5 mM MgCl2, 1 mM DTT, 1.6 U RNAse inhibitor (Promega N2515), 0.1 mg/ml BSA (Promega R3961), and 2% glycerol. All compounds were serially diluted (3-fold) in DMSO and diluted further in water such that the final concentration of DMSO in the assay was 2%. HCV RdRp genotype 1b enzyme was used at a final concentration of 28 nM. A polyA template was used at 6 nM, and a biotinylated oligo-dT12 primer was used at 180 nM final concentration. Template was obtained commercially (Amersham 27-4110). Biotinylated primer was prepared by Sigma Genosys. 3H-UTP was used at 0.6 μCi (0.29 μM total UTP). Reactions were initiated by the addition of enzyme, incubated at 30° C. for 60 min, and stopped by adding 25 μl of 50 mM EDTA containing SPA beads (4 μg/μl, Amersham RPNQ 0007 H. Plates were read on a Packard Top Count NXT after >1 hr incubation at room temperature.
Modified HCV NS5B RdRp enzyme assay. A modified enzyme assay was performed essentially as described for the standard enzyme assay except for the following: The biotinylated oligo dT12 primer was precaptured on streptavidin-coated SPA beads by mixing primer and beads in assay buffer and incubating at room temperature for one hour. Unbound primer was removed after centrifugation. The primer-bound beads were resuspended in 20 mM Hepes buffer, pH 7.5 and used in the assay at final concentrations of 20 nM primer and 0.67 μg/μl beads. Order of addition in the assay: enzyme (14 nM) was added to diluted compound followed by the addition of a mixture of template (0.2 nM), 3H-UTP (0.6 μCi, 0.29 μM), and primer-bound beads, to initiate the reaction; concentrations given are final. Reactions were allowed to proceed for 4 hours at 30° C.
IC50 values for compounds were determined using seven different [I]. […]

HCV replicon cells = test: HCV replicon FRET assay; format: cell-based; conditions: Hepatitis C virus
Source text: FRET Assay Preparation. To perform the HCV FRET screening assay, 96-well cell culture plates were used. The FRET peptide (Anaspec, Inc.) (Taliani et al., Anal Biochem. 1996, 240, 60-67) contains a fluorescence donor, EDANS, near one end of the peptide and an acceptor, DABCYL, near the other end. The fluorescence of the peptide is quenched by […] resonance energy transfer (RET) between the donor and the acceptor, but as the NS3 protease cleaves the peptide the products are released from RET quenching and the fluorescence of the donor becomes apparent. The assay reagent was made as follows: 5× cell Luciferase cell culture lysis reagent from Promega (#E153A) diluted to 1× with dH2O, NaCl added to 150 mM final, the FRET peptide diluted to 20 μM final from a 2 mM stock.
To prepare plates, HCV replicon cells, with or without a Renilla luciferase reporter gene, were trypsinized and placed into each well of a 96-well plate with titrated test compounds added in columns 3 through 12; columns 1 and 2 contained a control compound (HCV protease inhibitor), and the bottom row contained cells without compound. The plates were then placed in a CO2 incubator at 37° C.
Assays. Subsequent to addition of the test compounds described above (FRET Assay Preparation), at various times the plate was removed and Alamar blue solution (Trek Diagnostics, #00-100) was added per well as a measure of cellular toxicity. After reading in a Cytoflour 4000 instrument (PE Biosystems), plates were rinsed with PBS and then used for FRET assay by the addition of 30 ul of the FRET peptide assay reagent described above (FRET Assay Preparation) per well. The plate was then placed into the Cytoflour 4000 instrument which had been set to 340 excite/490 emission, automatic mode for 20 cycles and the plate read in a kinetic mode. Typically, the signal to noise using an endpoint analysis after the reads was at least three-fold. Alternatively, after Alamar blue reading, plates were rinsed with PBS, 50 ul of DMEM (high glucose) without phenol red was added and plates were then used for luciferase assay using the Promega Dual-Glo Luciferase Assay System.
Compound analysis was determined by quantification of the relative HCV replicon inhibition and the relative cytotoxicity values. To calculate cytoxicity values, the average Alamar Blue fluorescence signals from the control wells were set as 100% non-toxic. The individual signals in each of the compound test wells were then divided by the average control signal and multiplied by 100% to determine […]. To calculate the HCV replicon inhibition values, an average background value was obtained from the two wells containing the highest amount of HCV protease inhibitor at the end of the assay period. These numbers were similar to those obtained from naïve Huh-7 cells.
The background numbers were then subtracted from the average signal obtained from the control wells and this number was used as 100% activity. The individual signals in each of the compound test wells were then divided by the averaged control values after background subtraction and multiplied by 100% to determine percent activity. EC50 values for a protease inhibitor titration were calculated as the concentration which caused a 50% reduction in FRET or luciferase activity. The two numbers generated for the compound plate, percent cytoxicity and percent activity were used to determine compounds of interest for further analysis.

T1 sequence (Q9WMX2 2420-2992): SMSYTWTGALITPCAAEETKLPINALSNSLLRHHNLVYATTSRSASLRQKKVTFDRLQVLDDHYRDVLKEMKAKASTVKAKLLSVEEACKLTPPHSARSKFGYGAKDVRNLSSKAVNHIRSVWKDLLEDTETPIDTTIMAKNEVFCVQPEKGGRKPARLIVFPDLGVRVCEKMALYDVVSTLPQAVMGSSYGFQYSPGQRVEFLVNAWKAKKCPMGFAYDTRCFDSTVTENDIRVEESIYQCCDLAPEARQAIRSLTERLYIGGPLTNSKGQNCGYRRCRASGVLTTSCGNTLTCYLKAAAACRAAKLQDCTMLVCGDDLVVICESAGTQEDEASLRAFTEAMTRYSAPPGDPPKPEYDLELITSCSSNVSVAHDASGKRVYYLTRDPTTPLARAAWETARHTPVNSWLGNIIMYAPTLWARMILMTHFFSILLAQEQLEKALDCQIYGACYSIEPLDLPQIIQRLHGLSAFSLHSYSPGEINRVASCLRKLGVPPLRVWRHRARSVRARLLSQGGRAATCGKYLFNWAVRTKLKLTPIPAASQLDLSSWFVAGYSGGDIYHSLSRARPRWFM

| Compound | IC50 (HCV NS5B) [nM] | EC50 (HCV replicon cells) [nM] |
| --- | --- | --- |
| O=C(O)c1ccc2c(C3CCCCC3)c3n(c2c1)CC(c1nnnn1CC1CCCO1)=Cc1ccccc1-3 (stereo not shown) [Example 10, 13-cyclohexyl-6-[1-[(tetrahydro-2-furanyl)methyl]-1H-tetrazol-5-yl]-7H-indolo[2,1-a][2]benzazepine-10-carboxylic acid] | 1 to 500 | > 500 |
| O=C(O)c1ccc2c(C3CCCCC3)c3n(c2c1)CC(c1nnn(CC2CCOCC2)n1)=Cc1ccccc1-3 [Example 11, 13-cyclohexyl-6-[2-[(tetrahydro-2H-pyran-4-yl)methyl]-2H-tetrazol-5-yl]-7H-indolo[2,1a][2]benzazepine-10-carboxylic acid] | 1 to 500 | > 500 |
| O=C(O)c1ccc2c(C3CCCCC3)c3n(c2c1)C=C(c1nnn(CC2CCOCC2)n1)Cc1ccccc1-3 [Example 12, 13-cyclohexyl-6-[2-[(tetrahydro-2H-pyran-4-yl)methyl]-2H-tetrazol-5-yl]-5H-indolo[2,1-a][2]benzazepine-10-carboxylic acid] | > 500 | > 500 |
| O=C(O)c1ccc2c(C3CCCCC3)c3n(c2c1)CC(c1nnnn1CC1CCOCC1)=Cc1ccccc1-3 [Example 13, 13-cyclohexyl-6-[1-[(tetrahydro-2H-pyran-4-yl)methyl]-1H-tetrazol-5-yl]-7H-indolo[2,1-a][2]benzazepine-10-carboxylic acid] | 1 to 500 | > 500 |
| O=C(O)c1ccc2c(C3CCCCC3)c3n(c2c1)C=C(c1nnnn1CC1CCOCC1)Cc1ccccc1-3 [Example 14, 13-cyclohexyl6-[1-[(tetrahydro-2H-pyran-4-yl)methyl]-1H-tetrazol-5-yl]-5H-indolo[2,1-a][2]benzazepine-10-carboxylic acid] | > 500 | > 500 |
| CN(C)S(=O)(=O)NC(=O)c1ccc2c(C3CCCCC3)c3n(c2c1)CC(c1nnn(CC2CCOCC2)n1)=Cc1ccccc1-3 [Example 15, 13-cyclohexyl-N-[(dimethylamino)sulfonyl]-6-[2-[(tetrahydro-2H-pyran-4-yl)methyl]-2H-tetrazol-5-yl]-7H-indolo[2,1-a][2]benzazepine-10-carboxamide] | 1 to 500 | > 500 |
| COc1ccc2c(c1)C=C(c1nnn(CC3CCOCC3)n1)Cn1c-2c(C2CCCCC2)c2ccc(C(=O)O)cc21 [Example 16, 13-cyclohexyl-3-methoxy-6-[2-[(tetrahydro-2H-pyran-4-yl)methyl]-2H-tetrazol-5-yl]-7H-indolo[2,1-a][2]benzazepine-10-carboxylic acid] | 1 to 500 | > 500 |
| COc1ccc2c(c1)C=C(c1nnn(CC3CCOCC3)n1)Cn1c-2c(C2CCCCC2)c2ccc(C(=O)NS(=O)(=O)N(C)C)cc21 [Example 17, 13-cyclohexyl-N-[(dimethylamino)sulfonyl]-3-methoxy-6-[2-[(tetrahydro-2H-pyran-4-yl)methyl]-2H-tetrazol-5-yl]-7H-indolo[2,1-a][2]benzazepine-10-carboxamide] | 1 to 500 | 1 to 500 |
| O=C(O)c1ccc2c(C3CCCCC3)c3n(c2c1)CC(c1n[nH]c(=O)o1)=Cc1ccccc1-3 [Example 19, 13-cyclohexyl-6-(4,5-dihydro-5-oxo-1,3,4-oxadiazol-2-yl)-7H-indolo[2,1-a][2]benzazepine-10-carboxylic acid] | 1 to 500 | > 500 |
| O=C(O)c1ccc2c(C3CCCCC3)c3n(c2c1)CC(c1nn(CC2CCOCC2)c(=O)o1)=Cc1ccccc1-3 [Example 21, 13-cyclohexyl-6-[4,5-dihydro-5-oxo-4-[(tetrahydro-2H-pyran-4-yl)methyl]-1,3,4-oxadiazol-2-yl]-7H-indolo[2,1-a][2]benzazepine-10-carboxylic acid] | 1 to 500 | > 500 |
| O=C(O)c1ccc2c(C3CCCCC3)c3n(c2c1)CC(c1n[nH]c(CC2CCOCC2)n1)=Cc1ccccc1-3 [Example 22, 13-cyclohexyl-6-[3-[(tetrahydro-2H-pyran-4-yl)methyl]-1H-1,2,4-triazol-5-yl]-7H-indolo[2,1-a][2]benzazepine-10-carboxylic acid] | 1 to 500 | > 500 |
| COC(=O)c1ccc2c(C3CCCCC3)c3n(c2c1)CC(c1nc(C)no1)=Cc1ccccc1-3 [Example 23, 13-cyclohexyl-6-(3-methyl-1,2,4-oxadiazol-5-yl)-7H-indolo[2,1-a][2]benzazepine-10-carboxylic acid, methyl ester] | > 500 | > 500 |
| Cc1noc(C2=Cc3ccccc3-c3c(C4CCCCC4)c4ccc(C(=O)O)cc4n3C2)n1 [Example 24, 13-cyclohexyl-6-(3-methyl-1,2,4-oxadiazol-5-yl)-7H-indolo[2,1-a][2]benzazepine-10-carboxylic acid] | 1 to 500 | > 500 |
| Cc1noc(C2=Cc3ccccc3-c3c(C4CCCCC4)c4ccc(C(=O)NS(=O)(=O)N(C)C)cc4n3C2)n1 [Example 25, 13-cyclohexyl-N-[(dimethylamino)sulfonyl]-6-(3-methyl-1,2,4-oxadiazol-5-yl)-7H-indolo[2,1-a][2]benzazepine-10-carboxamide] | 1 to 500 | 1 to 500 |
